# pIC50: −log10 of the molar value.
# Molecular target: T1, Recombinant human cathepsin A (Homo sapiens, UniProt P10619)
# T1 construct: Recombinant human cathepsin A (residues 29-480, with a C-terminal 10-His tag); 10-His (C); purchased R&D Systems 1049-SE
# T1 sequence (P10619 29-312 limits assumed): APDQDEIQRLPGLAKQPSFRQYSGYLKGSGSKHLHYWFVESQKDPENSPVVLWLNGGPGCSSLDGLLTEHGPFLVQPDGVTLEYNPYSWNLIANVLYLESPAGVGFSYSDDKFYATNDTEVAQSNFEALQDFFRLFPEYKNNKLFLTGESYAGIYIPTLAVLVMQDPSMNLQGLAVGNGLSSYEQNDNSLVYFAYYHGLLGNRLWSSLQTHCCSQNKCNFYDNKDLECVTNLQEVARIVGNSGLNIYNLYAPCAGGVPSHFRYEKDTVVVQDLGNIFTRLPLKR
# T1 sequence (P10619 327-480 limits assumed): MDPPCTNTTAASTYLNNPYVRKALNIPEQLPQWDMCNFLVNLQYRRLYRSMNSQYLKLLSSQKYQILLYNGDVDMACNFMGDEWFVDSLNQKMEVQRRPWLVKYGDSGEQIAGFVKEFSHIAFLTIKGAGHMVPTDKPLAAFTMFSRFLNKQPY
# Test: Cathepsin A inhibitory activity
# Format: biochemical
# Settings: read-out: Activity (2): Cathepsin A inhibitory activity (IC50 class)
# Method in brief: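 Read-out was microfluidic separation of cleaved vs. uncleaved Bodipy FL-bradykinin (2 μM), giving turnover, % inhibition and IC50. Compound and 833 ng/ml enzyme met for 15 min RT in pH 5.5 MES/DTT before substrate (15 min RT). The 29-480 His-tagged human enzyme was first activated by cathepsin L, then E-64 (10 μM).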
row,SMILES,pIC50
1,"CCC(O)(CC)COc1cc(C(=O)N[C@@H](CC(=O)O)c2ccc(Cl)cc2Cl)nn1-c1ccccc1F [Example 762, (S)-3-(2,4-Dichloro-phenyl)-3-{[5-(2-ethyl-2-hydroxy-butoxy)-1-(2-fluoro-phenyl)-1H-pyrazole-3-carbonyl]-amino}-propionic acid]",> 7.00
2,"Cc1ccccc1[C@H](CC(=O)O)NC(=O)c1cc(OC[C@](C)(O)C(C)C)n(-c2ccccc2F)n1 [Example 765, (S)-3-{[1-(2-Fluoro-phenyl)-5-((R)-2-hydroxy-2,3-dimethyl-butoxy)-1H-pyrazole-3-carbonyl]-amino}-3-o-tolyl-propionic acid]",> 7.00
3,"Cc1ccc([C@H](CC(=O)O)NC(=O)c2cc(OC[C@@](C)(O)C(C)C)n(-c3ccccc3F)n2)cc1 [Example 766, (S)-3-{[1-(2-Fluoro-phenyl)-5-((S)-2-hydroxy-2,3-dimethyl-butoxy)-1H-pyrazole-3-carbonyl]-amino}-3-p-tolyl-propionic acid]",> 7.00
4,CC(C)[C@@](C)(O)COc1cc(C(=O)N[C@@H](CC(=O)O)c2cccc(Cl)c2)nn1-c1ccccc1F [Example 767],> 7.00
5,"CC(C)[C@@](C)(O)COc1cc(C(=O)N[C@@H](CC(=O)O)c2ccc(F)cc2)nn1-c1ccccc1F [Example 768, (S)-3-(4-Fluoro-phenyl)-3-{[1-(2-fluoro-phenyl)-5-((R)-2-hydroxy-2,3-dimethyl-butoxy)-1H-pyrazole-3-carbonyl]-amino}-propionic acid]",> 7.00
6,COc1cccc([C@H](CC(=O)O)NC(=O)c2cc(OC[C@@](C)(O)C(C)C)n(-c3ccccc3F)n2)c1OC [Example 769],> 7.00
7,"Cc1ccccc1[C@H](CC(=O)O)NC(=O)c1cc(OCC(C)(O)C(C)C)n(-c2ccccc2F)n1 (stereo partly drawn) [Example 770, (S)-3-{[1-(2-Fluoro-phenyl)-5-(2-hydroxy-2,3-dimethyl-butoxy)-1H-pyrazole-3-carbonyl]-amino}-3-o-tolyl-propionic acid]",> 7.00
8,"CC(C)(C)[C@@](C)(O)COc1cc(C(=O)N[C@@H](CC(=O)O)c2ccc(F)cc2)nn1-c1ccccc1F [Example 771, (S)-3-(4-Fluoro-phenyl)-3-{[1-(2-fluoro-phenyl)-5-((R)-2-hydroxy-2,3,3-trimethyl-butoxy)-1H-pyrazole-3-carbonyl]-amino}-propionic acid]",> 7.00
9,"Cc1ccc([C@H](CC(=O)O)NC(=O)c2cc(OC[C@@](C)(O)C(C)C)n(-c3ccccc3F)n2)c(C)c1 [Example 772, (S)-3-(2,4-Dimethyl-phenyl)-3-{[1-(2-fluoro-phenyl)-5-((S)-2-hydroxy-2,3-dimethyl-butoxy)-1H-pyrazole-3-carbonyl]-amino}-propionic acid]",> 7.00
10,"CC(C)(C)[C@](C)(O)COc1cc(C(=O)NC(CC(=O)O)C2CCCCC2)nn1-c1ccccc1F (stereo partly drawn) [Example 773, 3-Cyclohexyl-3-{[1-(2-fluoro-phenyl)-5-((S)-2-hydroxy-2,3,3-trimethyl-butoxy)-1H-pyrazole-3-carbonyl]-amino}-propionic acid]",> 7.00
11,"CC(C)(C)[C@@](C)(O)COc1cc(C(=O)N[C@@H](CC(=O)O)c2cccc(Cl)c2)nn1-c1ccccc1F [Example 774, (S)-3-(3-Chloro-phenyl)-3-{[1-(2-fluoro-phenyl)-5-((R)-2-hydroxy-2,3,3-trimethyl-butoxy)-1H-pyrazole-3-carbonyl]-amino}-propionic acid]",> 7.00
12,"CC(C)C(C)(O)COc1cc(C(=O)N[C@@H](CC(=O)O)c2ccccc2Cl)nn1-c1ccccc1F (stereo partly drawn) [Example 775, (S)-3-(2-Chloro-phenyl)-3-{[1-(2-fluoro-phenyl)-5-(2-hydroxy-2,3-dimethyl-butoxy)-1H-pyrazole-3-carbonyl]-amino}-propionic acid]",> 7.00
13,"CC(C)(C)[C@@H](O)COc1cc(C(=O)N[C@@H](CC(=O)O)c2cccc(Cl)c2Cl)nn1-c1ccccc1F [Example 776, (S)-3-(2,3-Dichloro-phenyl)-3-{[1-(2-fluoro-phenyl)-5-((R)-2-hydroxy-3,3-dimethyl-butoxy)-1H-pyrazole-3-carbonyl]-amino}-propionic acid]",> 7.00
14,"CC(C)(C)C(=O)COc1cc(C(=O)N[C@@H](CC(=O)O)c2ccccc2Cl)nn1-c1ccccc1F [Example 777, (S)-3-(2-Chloro-phenyl)-3-{[5-(3,3-dimethyl-2-oxo-butoxy)-1-(2-fluoro-phenyl)-1H-pyrazole-3-carbonyl]-amino}-propionic acid]",> 7.00
15,"CC(C)(C)[C@@](C)(O)COc1cc(C(=O)N[C@@H](CC(=O)O)c2cccc(C#N)c2)nn1-c1ccccc1F [Example 778, (S)-3-(3-Cyano-phenyl)-3-{[1-(2-fluoro-phenyl)-5-((R)-2-hydroxy-2,3,3-trimethyl-butoxy)-1H-pyrazole-3-carbonyl]-amino}-propionic acid]",> 7.00
16,"CC(C)(C)[C@@](C)(O)COc1cc(C(=O)N[C@@H](CC(=O)O)c2cccc(F)c2)nn1-c1ccccc1F [Example 779, (S)-3-(3-Fluoro-phenyl)-3-{[1-(2-fluoro-phenyl)-5-((R)-2-hydroxy-2,3,3-trimethyl-butoxy)-1H-pyrazole-3-carbonyl]-amino}-propionic acid]",> 7.00
17,"Cc1ccc([C@H](CC(=O)O)NC(=O)c2cc(OC[C@](C)(O)C(C)(C)C)n(-c3ccccc3F)n2)cc1 [Example 780, (S)-3-{[1-(2-Fluoro-phenyl)-5-((R)-2-hydroxy-2,3,3-trimethyl-butoxy)-1H-pyrazole-3-carbonyl]-amino}-3-p-tolyl-propionic acid]",> 7.00
18,"Cc1ccc([C@H](CC(=O)O)NC(=O)c2cc(OC[C@@](C)(O)C(C)(C)C)n(-c3ccccc3F)n2)cc1 [Example 781, (S)-3-{[1-(2-Fluoro-phenyl)-5-((S)-2-hydroxy-2,3,3-trimethyl-butoxy)-1H-pyrazole-3-carbonyl]-amino}-3-p-tolyl-propionic acid]",> 7.00
19,"CC(C)C(C)(O)COc1cc(C(=O)N[C@@H](CC(=O)O)c2cccc(F)c2)nn1-c1ccccc1F (stereo partly drawn) [Example 782, (S)-3-(3-Fluoro-phenyl)-3-{[1-(2-fluoro-phenyl)-5-(2-hydroxy-2,3-dimethyl-butoxy)-1H-pyrazole-3-carbonyl]-amino}-propionic acid]",> 7.00
20,"COc1ccccc1[C@H](CC(=O)O)NC(=O)c1cc(OC[C@@](C)(O)C(C)C)n(-c2ccccc2F)n1 [Example 783, (S)-3-{[1-(2-Fluoro-phenyl)-5-((S)-2-hydroxy-2,3-dimethyl-butoxy)-1H-pyrazole-3-carbonyl]-amino}-3-(2-methoxy-phenyl)-propionic acid]",> 7.00
21,"CC(C)[C@](C)(O)COc1cc(C(=O)N[C@@H](CC(=O)O)c2ccccc2C(F)(F)F)nn1-c1ccccc1F [Example 784, (S)-3-{[1-(2-Fluoro-phenyl)-5-((S)-2-hydroxy-2,3-dimethyl-butoxy)-1H-pyrazole-3-carbonyl]-amino}-3-(2-trifluoromethyl-phenyl)-propionic acid]",> 7.00
22,"CC(C)C(C)(O)COc1cc(C(=O)N[C@@H](CC(=O)O)c2cccc(Cl)c2)nn1-c1ccccc1F (stereo partly drawn) [Example 785, (S)-3-(3-Chloro-phenyl)-3-{[1-(2-fluoro-phenyl)-5-(2-hydroxy-2,3-dimethyl-butoxy)-1H-pyrazole-3-carbonyl]-amino}-propionic acid]",> 7.00

# Same assay, conditions: recombinant human cathepsin A 833 ng/ml, Bodipy FL-labeled bradykinin 2 μM, pH 5.5; read-out: CATH-A IC50
row,SMILES,pIC50
1,"Cc1ccc([C@H](CC(=O)O)NC(=O)c2cc(OC[C@@](C)(O)C(C)C)n(-c3ccccc3F)n2)cc1 [Example 766, (S)-3-{[1-(2-Fluoro-phenyl)-5-((S)-2-hydroxy-2,3-dimethyl-butoxy)-1H-pyrazole-3-carbonyl]-amino}-3-p-tolyl-propionic acid]",9.16
2,"CC(C)[C@@](C)(O)COc1cc(C(=O)N[C@@H](CC(=O)O)c2ccc(F)cc2)nn1-c1ccccc1F [Example 768, (S)-3-(4-Fluoro-phenyl)-3-{[1-(2-fluoro-phenyl)-5-((R)-2-hydroxy-2,3-dimethyl-butoxy)-1H-pyrazole-3-carbonyl]-amino}-propionic acid]",8.94
3,"CC(C)(C)[C@@](C)(O)COc1cc(C(=O)N[C@@H](CC(=O)O)c2ccc(F)cc2)nn1-c1ccccc1F [Example 771, (S)-3-(4-Fluoro-phenyl)-3-{[1-(2-fluoro-phenyl)-5-((R)-2-hydroxy-2,3,3-trimethyl-butoxy)-1H-pyrazole-3-carbonyl]-amino}-propionic acid]",8.71
